Reference: ChEMBL document CHEMBL4190406, “Discovery of Potent, Selective, and Peripherally Restricted Pan-Trk Kinase Inhibitors for the Treatment of Pain” (J Med Chem, 2018)

Columns and labels:
[1] = Clearance in iv dosed rat administered as 4 hrs infusion; type: ADME, organism-based; conditions: in vivo
in vitro [2] = conditions: human, hepatocytes
[3] = Oral bioavailability in rat; type: ADME, organism-based; conditions: in vivo
[4] = Ratio of unbound brain to plasma concentration in iv dosed rat administered as 4 hrs infusion by equilibrium dialysis method; type: ADME, organism-based; conditions: brain and plasma, read-out: K(p,uu,brain)
physchem = conditions: buffer, pH 7.4
[5] = Drug metabolism in human hepatocytes assessed as CYP450-mediated metabolite formation at 1 uM up to 240 mins by LC-MS/MS analysis; type: ADME, cell-based; conditions: 4 h
in vitro [6] = conditions: dog, MDCK
in vitro [7] = conditions: human, liver microsomes

Cn1cnc(-c2ccc(OC3CCN(C(=O)Cc4ccc(OC(F)(F)F)cc4)CC3)c(C(N)=O)c2)c1
clearance [1]: 38 mL/min/kg
hepatocyte CLint at 4 h, 1 µM (in vitro [2]): 8 µL/min/1e6 cells
bioavailability [3]: 45%
Kp uu at 4 h [4]: 0.0065
logD (physchem): 2.9
Drug metabolism [5]: Metabolite_Detected
Papp A→B (in vitro [6]): 10 ×10⁻⁶ cm/s
microsomal CLint at 1 h, 1 µM (in vitro [7]): < 8 µL/min/mg
